The results in this text go back to ChEMBL document CHEMBL5291721, “A preclinical secondary pharmacology resource illuminates target-adverse drug reaction associations of marketed drugs” (Nat Commun, 2023).

The structures appear in SMILES notation.

One experiment has as its target T1, Progesterone receptor (Homo sapiens, UniProt P06401).
T1 sequence (P06401 whole entry): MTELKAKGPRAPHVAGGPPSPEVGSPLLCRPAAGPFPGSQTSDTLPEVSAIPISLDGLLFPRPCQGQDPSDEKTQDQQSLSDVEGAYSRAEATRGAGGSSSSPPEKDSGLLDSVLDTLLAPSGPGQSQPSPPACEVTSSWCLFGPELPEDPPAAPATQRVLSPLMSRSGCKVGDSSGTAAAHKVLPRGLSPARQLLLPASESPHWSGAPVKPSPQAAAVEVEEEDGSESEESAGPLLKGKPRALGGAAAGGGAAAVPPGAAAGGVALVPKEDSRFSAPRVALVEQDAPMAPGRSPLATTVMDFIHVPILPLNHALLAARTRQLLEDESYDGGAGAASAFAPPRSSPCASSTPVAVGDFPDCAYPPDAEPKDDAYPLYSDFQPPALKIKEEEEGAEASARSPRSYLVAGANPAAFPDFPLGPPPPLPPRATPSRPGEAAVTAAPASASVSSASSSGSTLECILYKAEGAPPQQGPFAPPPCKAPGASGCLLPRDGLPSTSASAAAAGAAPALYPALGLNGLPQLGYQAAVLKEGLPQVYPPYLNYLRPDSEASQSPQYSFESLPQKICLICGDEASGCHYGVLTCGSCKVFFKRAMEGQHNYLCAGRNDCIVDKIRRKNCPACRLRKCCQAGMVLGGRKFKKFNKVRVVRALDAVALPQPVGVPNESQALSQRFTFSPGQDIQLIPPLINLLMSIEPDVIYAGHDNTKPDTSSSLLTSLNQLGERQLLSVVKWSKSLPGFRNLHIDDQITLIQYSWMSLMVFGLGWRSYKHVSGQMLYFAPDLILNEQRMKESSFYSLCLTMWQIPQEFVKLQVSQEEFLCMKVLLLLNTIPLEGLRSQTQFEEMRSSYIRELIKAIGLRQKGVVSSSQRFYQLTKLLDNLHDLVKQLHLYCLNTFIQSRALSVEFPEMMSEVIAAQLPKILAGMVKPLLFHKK
The format is functional.

The target of experiment [1] is T2, Type-1 angiotensin II receptor (Homo sapiens, UniProt P30556).
T2 sequence (P30556 whole entry): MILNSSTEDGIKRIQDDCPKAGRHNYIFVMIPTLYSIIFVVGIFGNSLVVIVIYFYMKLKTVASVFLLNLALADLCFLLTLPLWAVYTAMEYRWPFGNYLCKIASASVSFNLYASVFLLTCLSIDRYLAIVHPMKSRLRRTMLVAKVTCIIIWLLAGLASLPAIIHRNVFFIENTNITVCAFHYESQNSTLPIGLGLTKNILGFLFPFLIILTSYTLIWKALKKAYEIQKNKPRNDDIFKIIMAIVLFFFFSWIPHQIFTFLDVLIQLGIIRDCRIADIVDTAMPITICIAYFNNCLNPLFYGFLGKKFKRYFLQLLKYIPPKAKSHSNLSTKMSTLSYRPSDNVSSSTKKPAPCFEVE

The target in a further experiment is Vasopressin V1a receptor (Homo sapiens, UniProt P37288).
Sequence of Vasopressin V1a receptor (P37288 whole entry): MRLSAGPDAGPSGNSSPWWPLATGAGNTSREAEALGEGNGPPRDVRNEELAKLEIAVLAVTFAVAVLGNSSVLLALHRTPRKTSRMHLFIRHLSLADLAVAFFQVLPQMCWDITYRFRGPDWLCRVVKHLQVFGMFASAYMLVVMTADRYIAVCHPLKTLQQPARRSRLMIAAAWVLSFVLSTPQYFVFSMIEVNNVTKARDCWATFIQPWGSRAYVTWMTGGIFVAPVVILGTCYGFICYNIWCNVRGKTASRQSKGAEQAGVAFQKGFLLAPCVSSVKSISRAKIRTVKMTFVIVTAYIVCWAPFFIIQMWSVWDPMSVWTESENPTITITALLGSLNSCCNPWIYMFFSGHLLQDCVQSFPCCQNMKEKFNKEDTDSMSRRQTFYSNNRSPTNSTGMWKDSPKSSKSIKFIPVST
The target of experiment [2] is T3, Muscarinic acetylcholine receptor M2 (Homo sapiens, UniProt P08172).
T3 sequence (P08172 whole entry): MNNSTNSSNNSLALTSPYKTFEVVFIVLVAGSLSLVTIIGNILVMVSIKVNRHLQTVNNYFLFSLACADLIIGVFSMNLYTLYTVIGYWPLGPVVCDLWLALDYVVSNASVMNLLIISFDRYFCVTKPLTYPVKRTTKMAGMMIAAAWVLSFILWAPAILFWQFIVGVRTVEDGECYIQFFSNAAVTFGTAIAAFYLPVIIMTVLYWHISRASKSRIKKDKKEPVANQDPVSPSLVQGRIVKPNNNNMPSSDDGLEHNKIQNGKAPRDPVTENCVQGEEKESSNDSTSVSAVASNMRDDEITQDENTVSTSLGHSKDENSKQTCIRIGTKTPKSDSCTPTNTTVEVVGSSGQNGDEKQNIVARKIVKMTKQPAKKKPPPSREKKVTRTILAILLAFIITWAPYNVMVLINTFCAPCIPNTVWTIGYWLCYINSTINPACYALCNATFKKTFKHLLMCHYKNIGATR
The format is functional, cell-based.

A further experiment addresses Mu-type opioid receptor (Homo sapiens, UniProt P35372).
Experiment [3] concerns the target T4, Alpha-1A adrenergic receptor (Homo sapiens, UniProt P35348).
T4 sequence (P35348 whole entry): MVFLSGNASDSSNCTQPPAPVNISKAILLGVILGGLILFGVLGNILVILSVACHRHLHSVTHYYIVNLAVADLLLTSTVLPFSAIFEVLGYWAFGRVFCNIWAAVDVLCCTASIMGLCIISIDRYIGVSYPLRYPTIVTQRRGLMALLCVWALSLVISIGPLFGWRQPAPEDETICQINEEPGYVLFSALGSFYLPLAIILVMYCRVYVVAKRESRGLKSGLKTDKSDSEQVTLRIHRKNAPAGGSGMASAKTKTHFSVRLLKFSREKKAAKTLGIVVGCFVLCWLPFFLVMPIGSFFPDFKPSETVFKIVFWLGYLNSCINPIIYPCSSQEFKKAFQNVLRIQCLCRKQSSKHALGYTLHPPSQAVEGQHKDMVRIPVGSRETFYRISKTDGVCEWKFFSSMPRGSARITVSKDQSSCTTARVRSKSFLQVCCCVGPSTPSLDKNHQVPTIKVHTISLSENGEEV

Experiment [4] addresses T5, Prostaglandin G/H synthase 1 (Rattus norvegicus, UniProt Q63921).
T5 sequence (Q63921 whole entry): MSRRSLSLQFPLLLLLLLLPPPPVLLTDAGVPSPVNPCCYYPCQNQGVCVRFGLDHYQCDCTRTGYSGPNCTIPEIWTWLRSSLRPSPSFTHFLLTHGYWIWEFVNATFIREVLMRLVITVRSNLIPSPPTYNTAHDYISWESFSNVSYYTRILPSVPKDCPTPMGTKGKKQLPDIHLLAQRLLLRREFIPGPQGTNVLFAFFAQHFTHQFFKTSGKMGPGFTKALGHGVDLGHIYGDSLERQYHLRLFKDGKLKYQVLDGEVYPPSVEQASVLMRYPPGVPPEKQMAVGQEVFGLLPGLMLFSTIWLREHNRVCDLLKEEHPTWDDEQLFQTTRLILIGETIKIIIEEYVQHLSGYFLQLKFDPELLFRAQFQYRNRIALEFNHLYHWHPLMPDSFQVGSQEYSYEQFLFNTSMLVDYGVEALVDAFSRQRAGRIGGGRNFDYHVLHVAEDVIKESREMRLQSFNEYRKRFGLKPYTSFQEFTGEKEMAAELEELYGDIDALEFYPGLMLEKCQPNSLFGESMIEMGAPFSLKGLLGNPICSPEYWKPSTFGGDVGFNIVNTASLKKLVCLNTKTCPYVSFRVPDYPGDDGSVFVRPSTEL
The format is functional.

Experiment [5] addresses 5-hydroxytryptamine receptor 2B (Homo sapiens, UniProt P41595). The format is functional, cell-based.
Also: assay procedure not described here.

Sequence of Mu-type opioid receptor (P35372 whole entry): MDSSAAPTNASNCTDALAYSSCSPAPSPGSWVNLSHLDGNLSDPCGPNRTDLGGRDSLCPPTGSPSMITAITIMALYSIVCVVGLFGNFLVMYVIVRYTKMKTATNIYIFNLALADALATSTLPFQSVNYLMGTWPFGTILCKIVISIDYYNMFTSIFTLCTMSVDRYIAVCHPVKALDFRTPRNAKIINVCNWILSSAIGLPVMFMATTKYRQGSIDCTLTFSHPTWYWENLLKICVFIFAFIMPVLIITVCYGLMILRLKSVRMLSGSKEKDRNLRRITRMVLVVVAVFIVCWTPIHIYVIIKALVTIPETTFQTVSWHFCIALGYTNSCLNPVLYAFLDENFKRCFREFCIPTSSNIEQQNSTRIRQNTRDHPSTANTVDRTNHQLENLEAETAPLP
Sequence of 5-hydroxytryptamine receptor 2B (P41595 whole entry): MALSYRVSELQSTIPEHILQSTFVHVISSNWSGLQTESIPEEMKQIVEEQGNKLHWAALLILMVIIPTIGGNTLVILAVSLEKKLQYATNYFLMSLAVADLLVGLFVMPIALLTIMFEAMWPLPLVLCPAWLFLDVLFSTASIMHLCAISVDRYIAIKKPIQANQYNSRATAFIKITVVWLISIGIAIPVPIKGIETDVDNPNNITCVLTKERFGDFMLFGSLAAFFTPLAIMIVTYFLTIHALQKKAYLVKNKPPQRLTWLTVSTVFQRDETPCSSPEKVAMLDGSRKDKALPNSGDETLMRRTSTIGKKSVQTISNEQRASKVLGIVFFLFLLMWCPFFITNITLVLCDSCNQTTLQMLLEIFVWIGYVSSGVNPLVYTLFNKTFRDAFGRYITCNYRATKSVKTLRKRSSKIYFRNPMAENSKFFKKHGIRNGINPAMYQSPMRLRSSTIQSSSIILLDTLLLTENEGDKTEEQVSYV

As to `CN(CCOc1ccc(CC2SC(=O)NC2=O)cc1)c1ccccn1` (stereo not drawn) [ROSIGLITAZONE], the AC50 is more than 30 µM at Progesterone receptor; 18 µM in experiment [1]; more than 30 µM on Vasopressin V1a receptor; 22 µM in experiment [2]; more than 10 µM at Mu-type opioid receptor; more than 10 µM in experiment [3]. Also, the AC50 in experiment [4] and in experiment [5] was more than 30 µM in each case.

The AC50 is the concentration giving half of the maximal activity seen. A low value points to greater potency.
